# Measured values taken from patent US9034866B2 (Genentech, Inc., priority 2012, dated 2015).
# Where “and” joins values, the source holds several entries; their conditions need not be identical. Identical values can stand only once. Like-named read-outs stand apart in the source and are kept apart here.
# How the values were obtained:
# [1] = system: REL-A (p65) nuclear translocation in HeLa cells; assay: REL-A nuclear translocation assay (classical NF-kB signaling), high content imaging; assay type: cell-based; conditions: Homo sapiens, HeLa, compounds 4.5 hours, then 10 ng/mL TNF-α for 30 minutes, read-out: REL-A HeLa Transloc Assay (IC50)
# Method: (2) A second set of cell assay are used to define the selectivity of NIK inhibitors toward inhibition of classical vs. non-classical NF-kB signaling and rely on quantification of the nuclear translocation of p52 (NF-kB2) and REL-A (p65) using high content cellular imaging. For the p52 (non-classical NF-kB signaling) nuclear translocation assay, HeLa cells are treated with different concentrations of compounds (0.2% DMSO final) in medium containing 10% fetal bovine serum and then stimulated with 100 ng/mL, of an anti-lymphotoxin beta receptor antibody (R&D Systems) for 5 hours. In the REL-A nuclear translocation assay, HeLa cells are incubated with compounds (0.2% DMSO final) for 4.5 hours in medium containing 10% fetal bovine serum before stimulating them with 10 ng/mL tumor necrosis factor (TNF)-α (R&D Systems) for 30 minutes. Cells are fixed with 4% paraformaldehyde, permeabilized by adding 0.1% Triton X-100 in phosphate buffered saline, and then are incubated with either 2 ug/mL anti-p52 antibody (Millipore) or 400 ng/mL anti-REL-A (p65) antibody (Santa Cruz Biotechnology). Finally, the cells are incubated with an Alexa488-labeled secondary antibody (Invitrogen) and DRAQ5 DNA stain (Biostatus). Imaging is carried out using an Opera reader (Perkin Elmer) and data are analyzed with the aid of Acapella software (Perkin Elmer). The p52 or REL-A translocation into the nucleus is quantified by the ratio of the nuclear to cytoplasmic signal intensity. […] The compounds in listed in Table 1 have the corresponding inhibitory value (IC50 in micromolar) for NIK p52 Translocation Assay as set forth in Table 2.
# The compounds in listed in Table 1 has the corresponding inhibitory value (IC50 in micromolar) for NIK RelA Translocation Assay as set forth in Table 2.
# [2] = biological target: nuclear factor-kappa B (NF-kB)-inducing kinase (NIK) (Homo sapiens (Human), UniProt Q99558); assay: NIK Enzyme Inhibition Assay (Transcreener ADP fluorescence polarization); assay type: biochemical; conditions: read-out: NIK ADP-FP (Ki uM)
# Method in brief: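 Baculovirus/insect-cell-expressed NIK (0.2-1 nM) incubated with compounds 1-3.5 h at 10 uM ATP. Buffer: 50 mM HEPES pH 7.2, 10 mM MgCl2, 2 mM DTT, 1% DMSO. ADP detected by Transcreener fluorescence polarization (ADP antibody, AlexaFluor 633 tracer) after EDTA quench.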
# [3] = purified NIK 0.2-1 nM, 10 uM ATP, Morrison's quadratic equation
# Chain of nuclear factor-kappa B (NF-kB)-inducing kinase (NIK) (Q99558 whole entry): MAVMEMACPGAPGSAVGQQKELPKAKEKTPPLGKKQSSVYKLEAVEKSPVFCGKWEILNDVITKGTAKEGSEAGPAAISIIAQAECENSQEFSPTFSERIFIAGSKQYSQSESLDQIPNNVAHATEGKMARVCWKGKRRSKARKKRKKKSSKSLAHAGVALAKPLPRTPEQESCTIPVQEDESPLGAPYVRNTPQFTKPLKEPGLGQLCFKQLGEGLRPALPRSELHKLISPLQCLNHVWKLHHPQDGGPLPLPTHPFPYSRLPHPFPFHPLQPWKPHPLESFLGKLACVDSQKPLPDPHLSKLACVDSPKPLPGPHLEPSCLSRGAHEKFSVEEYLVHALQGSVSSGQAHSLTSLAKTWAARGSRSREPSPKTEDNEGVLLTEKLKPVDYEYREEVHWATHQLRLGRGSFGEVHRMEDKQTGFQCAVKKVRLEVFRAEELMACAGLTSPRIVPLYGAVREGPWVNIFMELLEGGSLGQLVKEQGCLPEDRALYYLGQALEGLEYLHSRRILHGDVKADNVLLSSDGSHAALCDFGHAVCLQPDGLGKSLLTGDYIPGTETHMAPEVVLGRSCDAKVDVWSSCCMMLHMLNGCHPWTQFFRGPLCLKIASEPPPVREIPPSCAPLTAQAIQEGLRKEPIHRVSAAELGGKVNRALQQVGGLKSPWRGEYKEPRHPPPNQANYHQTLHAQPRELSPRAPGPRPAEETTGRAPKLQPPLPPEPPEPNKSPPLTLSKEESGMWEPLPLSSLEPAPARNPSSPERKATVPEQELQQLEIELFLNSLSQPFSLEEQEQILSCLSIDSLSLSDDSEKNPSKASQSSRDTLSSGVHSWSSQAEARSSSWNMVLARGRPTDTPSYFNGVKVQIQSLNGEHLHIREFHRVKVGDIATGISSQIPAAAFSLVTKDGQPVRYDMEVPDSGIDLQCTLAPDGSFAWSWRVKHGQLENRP
"Ki [2, 3]",SMILES,also measured
0.00078 µM,"CN1CC[C@@](O)(C#Cc2ccc3c(c2)-c2nc(C(N)=O)c(C(F)F)n2C2CC3C2)C1=O [Example 664, 3-(difluoromethyl)-10-[2-[(3R)-3-hy-droxy-1-methyl-2-oxo-pyrrolidin-3-yl]ethy-nyl]-5,6,7,12-tetrahydro-5,7-methano-benzo[c]imidazo[1,2-a]azepine-2-carboxamide]",
1.8 µM and 1.1 µM,NC(=O)c1cc2n(n1)-c1cc(C#CC3(O)CCCC3O)ccc1OCC2 (stereo not shown) [Example 695],
1 µM,CC(O)(C#Cc1ccc2c(c1)-n1nc(C(N)=O)cc1CCO2)C1CCCO1 (stereo not shown) [Example 696],
0.0033 µM,"CN1CC[C@@](O)(C#Cc2ccc3c(c2)-n2nc(C(N)=O)cc2C2(COC2)CO3)C1=O [Example 714, (R)-9-((3-hydroxy-1-methyl-2-oxopyrro-lidin-3-yl)ethynyl)-5H-spiro[ben-zo[b]pyrazolo[1,5-d][1,4]oxazepine-4,3′-oxetane]-2-carboxamide]",
0.1 µM,"NC(=O)c1cc2n(n1)-c1cc(C#CC3(O)CCCC3)ccc1OCC21COC1 [Example 715, 9-((1-hydroxycyclopentyl)ethynyl)-5H-spiro[benzo[b]pyrazolo[1,5-d][1,4]oxa-zepine-4,3′-oxetane]-2-carboxamide]",
0.008 µM,"Cc1cc([C@](C)(O)C#Cc2ccc3c(c2)-n2nc(C(N)=O)cc2C2(CCC2)CO3)no1 [Example 716, (R)-9-(3-hydroxy-3-(5-methylisoxazol-3-yl)but-1-yn-1-yl)-5H-spiro[benzo[b]py-razolo[1,5-d][1,4]oxazepine-4,1′-cyclo-butane]-2-carboxamide]",
0.0005 µM,"CN1CC[C@@](O)(C#Cc2ccc3c(c2)-n2nc(C(N)=O)cc2C2(CCC2)CO3)C1=O [Example 717, (R)-9-((3-hydroxy-1-methyl-2-oxopyrro-lidin-3-yl)ethynyl)-5H-spiro[ben-zo[b]pyrazolo[1,5-d][1,4]oxazepine-4,1′-cyclobutane]-2-carboxamide]",
0.0003 µM,"CN1CC[C@@](O)(C#Cc2ccc3c(c2)-n2nc(C(N)=O)c(C(F)F)c2CCO3)C1=O [Example 718, (R)-3-(difluoromethyl)-9-((3-hydroxy-1-methyl-2-oxopyrrolidin-3-yl)ethynyl)-4,5-dihydrobenzo[b]pyrazolo[1,5-d][1,4]oxazepine-2-carboxamide]",
0.0004 µM,"CN1CC[C@@](O)(C#Cc2ccc3c(c2)-n2nc(C(N)=O)c(Cl)c2C(F)(F)CO3)C1=O [Example 719, (R)-3-chloro-4,4-difluoro-9-((3-hydroxy-1-methyl-2-oxopyrrolidin-3-yl)ethynyl)-4,5-dihydrobenzo[b]pyrazolo[1,5-d][1,4]oxazepine-2-carboxamide]",
0.001 µM,"CN1CC[C@@](O)(C#Cc2ccc3c(c2)-n2nc(C(N)=O)c(CO)c2CCO3)C1=O [Example 720, (R)-9-((3-hydroxy-1-methyl-2-oxopyrro-lidin-3-yl)ethynyl)-3-(hydroxymethyl)-4,5-dihydrobenzo[b]pyrazolo[1,5-d][1,4]oxazepine-2-carboxamide]",

# Continued, molecule first:
SMILES,"Ki [2, 3]",also measured
Cc1nc([C@](C)(O)C#Cc2ccc3c(c2)-c2nc(C(N)=O)sc2[C@@H](F)CO3)no1,,IC50 [1]: > 20 µM
Cc1nc([C@](C)(O)C#Cc2ccc3c(c2)-c2nc(C(N)=O)sc2[C@@](C)(F)CO3)no1,,IC50 [1]: > 20 µM
CN1CC[C@@](O)(C#Cc2ccc3c(c2)-n2nc(C(N)=O)cc2[C@H](F)CO3)C1=O,,IC50 [1]: > 20 µM
Cc1nc([C@](C)(O)C#Cc2ccc3c(c2)-c2nc(C(N)=O)sc2[C@@H](C)CO3)no1 (racemic),,IC50 [1]: > 20 µM
C[C@H]1COc2ccc(C#C[C@]3(O)CCCN(C)C3=O)cc2-c2nc(C(N)=O)sc21 (racemic) [Example 501],,IC50 [1]: > 20 µM
"CC(C)(O)C#Cc1cc2c(cc1F)C1CC(C1)n1c-2nc(C(N)=O)c1C(O)c1ccn[nH]1 (stereo not shown) [Example 309, 9-fluoro-10-(3-hydroxy-3-methyl-but-1-ynyl)-3-[hydroxy(1H-pyrazol-5-yl)meth-yl]-5,6,7,12-tetrahydro-5,7-methanoben-zo[c]imidazo[1,2-a]azepine-2-carboxamide]",0.022 µM,
"CN1CC[C@](O)(C#Cc2cc3c(cc2F)C2CC(C2)n2c-3nc(C(N)=O)c2C(C)(C)O)C1=O [Example 325, 9-fluoro-3-(1-hydroxy-1-methyl-ethyl)-10-[2-[(3S)-3-hydroxy-1-methyl-2-oxo-pyrrolidin-3-yl]ethynyl]-5,6,7,12-tetra-hydro-5,7-methanobenzo[c]imidazo-[1,2-a]azepine-2-carboxamide]",> 1.2 µM,
"CC(C)(O)C#Cc1cc2c(cc1F)C1CC(C1)n1c-2nc(C(N)=O)c1CNC(=O)C(C)(C)C [Example 365, 3-[(2,2-dimethylpropanoylamino)meth-yl]-9-fluoro-10-(3-hydroxy-3-methyl-but-1-ynyl)-5,6,7,12-tetrahydro-5,7-meth-anobenzo[c]imidazo[1,2-a]azepine-2-carb-oxamide]",0.017 µM,
CC12CCC(O)(C#Cc3ccc4c(c3)-c3nc(C(N)=O)cn3CCO4)C1O2 (stereo not shown) [Example 428],> 1.2 µM,
Cc1nnc([C@](C)(O)C#Cc2ccc3c(c2)-n2nc(C(N)=O)cc2C(C)CO3)o1 (stereo partly shown) [Example 497],0.039 µM,
CNC(=O)c1c(C(N)=O)nn2c1CCOc1ccc(C#C[C@@](C)(O)c3cc(C)on3)cc1-2 [Example 548],,Ki [2]: 0.0014 µM
"Cc1cc([C@](C)(O)C#Cc2ccc3c(c2)-c2nc(C(N)=O)c(C(=O)NCC4COC4)n2CCO3)no1 [Example 580, (R)-10-(3-hydroxy-3-(5-methylisoxazol-3-yl)but-1-yn-1-yl)-N3-(oxetan-3-ylmeth-yl)-5,6-dihydrobenzo[f]imidazo[1,2-d][1,4]oxazepine-2,3-dicarboxamide]",0.0026 µM,
"Cc1cc([C@](C)(O)C#Cc2ccc3c(c2)-c2nc(C(N)=O)c(C(=O)NCc4cccnc4)n2CCO3)no1 [Example 581, (R)-10-(3-hydroxy-3-(5-methylisoxazol-3-yl)but-1-yn-1-yl)-N3-(pyridin-3-ylmeth-yl)-5,6-dihydrobenzo[f]imidazo[1,2-d][1,4]oxazepine-2,3-dicarboxamide]",0.001 µM,
"Cc1cc([C@](C)(O)C#Cc2ccc3c(c2)-c2nc(C(N)=O)cn2CC(CN2CCOCC2)O3)no1 (stereo partly drawn) [Example 597, 10-((R)-3-hydroxy-3-(5-methylisoxazol-3-yl)but-1-yn-1-yl)-6-(morpholinometh-yl)-5,6-dihydrobenzo[f]imidazo[1,2-d][1,4]oxazepine-2-carboxamide]",0.28 µM,
"CN1CC[C@@](O)(C#Cc2ccc3c(c2)-c2nc(C(N)=O)sc2C2CC3C2)C1=O [Example 609, (R)-9-((3-hydroxy-1-methyl-2-oxopyrro-lidin-3-yl)ethynyl)-5,6-dihydro-4H-4,6-methanobenzo[6,7]cyclohepta[1,2-d]thiazole-2-carboxamide]",0.00094 µM,
"CN1CC[C@@](O)(C#Cc2cc3c(cc2F)OCC(F)(F)c2sc(C(N)=O)nc2-3)C1=O [Example 641, 4,4,8-trifluoro-9-[2-[(3R)-3-hydroxy-1-methyl-2-oxo-pyrrolidin-3-yl]ethynyl]-5H-[1]benzoxepino[5,4-d]thiazole-2-carboxamide]",0.0002 µM,
"Cc1nc([C@](C)(O)C#Cc2ccc3c(c2)-n2nc(C(N)=O)cc2CCO3)no1 [Example 673, (R)-9-(3-hydroxy-3-(5-methyl-1,2,4-oxadiazol-3-yl)but-1-yn-1-yl)-4,5-dihydro-benzo[b]pyrazolo[1,5-d][1,4]oxazepine-2-carboxamide]",0.045 µM,
"Cc1cc([C@](C)(O)C#Cc2ccc3c(c2)-n2nc(C(N)=O)cc2C(F)(F)CO3)no1 [Example 674, (R)-4,4-difluoro-9-(3-hydroxy-3-(5-methylisoxazol-3-yl)but-1-yn-1-yl)-4,5-dihydrobenzo[b]pyrazolo[1,5-d][1,4]oxazepine-2-carboxamide]",,Ki [2]: 0.0011 µM
CC(C)(O)C#Cc1ccc2c(c1)-c1nc(C(N)=O)c(CN3CCC(=O)C3)n1CCO2 [Example 711],1.8 µM and 1.1 µM,
"Cc1cc([C@](C)(O)C#Cc2ccc3c(c2)-c2nc(C(N)=O)c(C(=O)NC4CCOCC4)n2CCO3)no1 [Example 712, (R)-10-(3-hydroxy-3-(5-methylisoxazol-3-yl)but-1-yn-1-yl)-N3-(tetrahydro-2H-pyran-4-yl)-5,6-dihydrobenzo[f]imidazo[1,2-d][1,4]oxazepine-2,3-dicarboxamide]",1 µM,
"Cc1cc([C@](C)(O)C#Cc2ccc3c(c2)-c2nc(C(N)=O)c(C(=O)NCc4cccc(F)c4)n2CCO3)no1 [Example 713, (R)-N3-(3-fluorobenzyl)-10-(3-hydroxy-3-(5-methylisoxazol-3-yl)but-1-yn-1-yl)-5,6-dihydrobenzo[f]imidazo[1,2-d][1,4]oxazepine-2,3-dicarboxamide]",> 1.2 µM,
